# Measurements as given in patent publication US12497393B2, “β-lactam compound, use thereof and preparation method therefor” (priority 2020, dated 2025).
# Read-outs that look alike come from different tables or passages of the source. Where a SMILES comes first, the peptide text is derived from it. Bridges are numbered along the chain shown (N, C = ends). [ ]: non-standard residue; d: D form. The star is where a group is joined. Heptanoyl(6-Me) = CC(C)CCCCC(=O)*; Dab = NCC[C@H](N)C(=O)O
# Experiments:
# Test in all cases: Antibacterial activity MIC assay (two-fold dilution agar plating)
# Format in all cases: cell-based
# Salmonella typhi = conditions: for MIC: Salmonella enterica, TYPHI, read-out: Minimal Inhibitory Concentration (MIC)
# Protocol: (§1) Antibacterial Activity-Evaluating Method (MIC Assay)
# (§2) In this study, the compounds of the present invention were tested for their antibacterial activities by using two-fold dilution agar plating method and Denley Multipoint Inoculator A400 according to the guidelines of the CLSI/NCCLS standard. The tested strains were amplified by hydrolyzed casein peptone (Mueller-Hinton Agar) broth and Brain and Heart Infusion. The strains used in this study were bacterial strains that were purchased from ATCC or clinically isolated in Chinese hospitals. Aztreonam, polymyxin or levofloxacin was used as positive control. The drugs were diluted with hydrolyzed casein peptone broth to the desired concentrations including 128.0, 64.0, 32.0, 16.0, 8.0, 4.0, 2.0, 1.0, 0.5, 0.25, 0.125, 0.06 and 0.03 μg/mL, and then placed respectively into each well and mixed thoroughly. After inoculation, the tested strains were incubated for 18 hours at a constant temperature of 35° C., and their growth levels were observed. The drug concentration with no microbial growth in the well was recorded as the lowest Minimal Inhibitory Concentration (MIC).
# Acinetobacter baumannii = conditions: for MIC: Acinetobacter baumannii, read-out: Minimal Inhibitory Concentration (MIC)
# Protocol: as §1, §2
# Proteus mirabilis = conditions: for MIC: Proteus mirabilis, ATCC49565, Proteus mirabilis ATCC 49565, read-out: Minimal Inhibitory Concentration (MIC)
# Protocol: as §1, §2
# Proteus vulgaris = conditions: for MIC: Proteus vulgaris, ATCC29905, Proteus vulgaris ATCC 29905, read-out: Minimal Inhibitory Concentration (MIC)
# Protocol: as §1, §2
# Enterobacter cloacae = conditions: for MIC: read-out: Minimal Inhibitory Concentration (MIC)
# Protocol: as §1, §2
# Providencia rettgeri = conditions: for MIC: Providencia rettgeri, ATCC31052, Providencia rettgeri ATCC 31052, read-out: Minimal Inhibitory Concentration (MIC)
# Protocol: as §1, §2
# Serratia marcescens = Serratia marcescens ATCC 21074; for MIC: ATCC21074, read-out: Minimal Inhibitory Concentration (MIC)
# Protocol: as §1, §2
# Pseudomonas aeruginosa = conditions: for MIC: read-out: Minimal Inhibitory Concentration (MIC)
# Protocol: as §1, §2
# Escherichia coli = conditions: for MIC: Escherichia coli, read-out: Minimal Inhibitory Concentration (MIC)
# Protocol: as §1, §2
# Klebsiella Pneumoniae = conditions: for MIC: Klebsiella pneumoniae, read-out: Minimal Inhibitory Concentration (MIC)
# Protocol: as §1, §2
# Enterobacter aerogenes = Enterobacter aerogenes ATCC 13048; for MIC: Klebsiella aerogenes, ATCC13048, read-out: Minimal Inhibitory Concentration (MIC)
# Protocol: as §1, §2
# Shigella flexneri = Shigella flexneri ATCC 12022; for MIC: ATCC12022, read-out: Minimal Inhibitory Concentration (MIC)
# Protocol: as §1, §2
# Citrobacter freundii = Citrobacter freundii ATCC 43864; for MIC: ATCC43864, read-out: Minimal Inhibitory Concentration (MIC)
# Protocol: as §1, §2
# [1] = test system: Stenotrophomonas maltophilia; conditions: Stenotrophomonas maltophilia ATCC 13636; for MIC: ATCC13636, read-out: Minimal Inhibitory Concentration (MIC)
# Protocol: as §1, §2
# [2] = ATCC19606, Acinetobacter baumannii ATCC 19606
# [3] = ATCC43560, Enterobacter cloacae ATCC 43560
# [4] = Enterobacter cloacae CDC1000654
# [5] = ATCC27853, Pseudomonas aeruginosa ATCC 27853
# [6] = ATCC25922, Escherichia coli ATCC 25922, ESBLs(−)
# [7] = ATCC35218, Escherichia coli ATCC 35218, ESBLs(+)
# [8] = Escherichia coli 08-85, mcr-1(+)
# [9] = Escherichia coli 13-43, mcr-1(+)
# [10] = Escherichia coli 13-66, mcr-1(+)
# [11] = Escherichia coli 16-1, ESBLs(+)
# [12] = Escherichia coli 16-7, ESBLs(−)
# [13] = Escherichia coli 17-R28, CRE, NDM-1(+)
# [14] = Escherichia coli CDC1001728, NDM-1(+)
# [15] = ATCC700603, Klebsiella Pneumoniae ATCC 700603, ESBLs(+)
# [16] = ATCCBAA2146, Klebsiella Pneumoniae ATCC BAA-2146, NDM-1(+)
# [17] = Klebsiella Pneumoniae 09-20, mcr-1(+)
# [18] = Klebsiella Pneumoniae 16-2, ESBLs(−)
# [19] = Klebsiella Pneumoniae 16-14, ESBLs(+)
# [20] = Klebsiella Pneumoniae 17-R27, CRE
structure (smiles),measurement,setting,value
"C[C@H]1[C@H](NC(=O)/C(=N\OC(C)(C)C(=O)O)c2csc(N)n2)C(=O)N1S(=O)(=O)O [AZN, aztreonam, reference compound]",MIC,Salmonella typhi,≤ 0.03 µg/mL
same,MIC,Acinetobacter baumannii; [2],32 µg/mL
same,MIC,Acinetobacter baumannii; Acinetobacter baumannii 16-16,128 µg/mL
same,MIC,Acinetobacter baumannii; Acinetobacter baumannii 16-33,32 µg/mL
same,MIC,Proteus mirabilis,≤ 0.03 µg/mL
same,MIC,Proteus vulgaris,≤ 0.03 µg/mL
same,MIC,Enterobacter cloacae; [3],≤ 0.03 µg/mL
same,MIC,Enterobacter cloacae; [4],> 128 µg/mL
same,MIC,Providencia rettgeri,≤ 0.03 µg/mL
same,MIC,Serratia marcescens,0.12 µg/mL
same,MIC,Pseudomonas aeruginosa; [5],4 µg/mL
same,MIC,Pseudomonas aeruginosa; Pseudomonas aeruginosa 16-11,> 128 µg/mL
same,MIC,Pseudomonas aeruginosa; Pseudomonas aeruginosa PAO1,4 µg/mL
same,MIC,Escherichia coli; [6],0.06 µg/mL
same,MIC,Escherichia coli; [7],≤ 0.03 µg/mL
same,MIC,Escherichia coli; [8],4 µg/mL
same,MIC,Escherichia coli; [9],8 µg/mL
same,MIC,Escherichia coli; [10],8 µg/mL
same,MIC,Escherichia coli; [11],≤ 0.03 µg/mL
same,MIC,Escherichia coli; [12],0.06 µg/mL
same,MIC,Escherichia coli; [13],16 µg/mL
same,MIC,Escherichia coli; [14],4 µg/mL
same,MIC,Klebsiella Pneumoniae; [15],32 µg/mL
same,MIC,Klebsiella Pneumoniae; [16],> 128 µg/mL
same,MIC,Klebsiella Pneumoniae; [17],0.25 µg/mL
same,MIC,Klebsiella Pneumoniae; [18],0.06 µg/mL
same,MIC,Klebsiella Pneumoniae; [19],4 µg/mL
same,MIC,Klebsiella Pneumoniae; [20],0.25 µg/mL
same,MIC,Enterobacter aerogenes,0.12 µg/mL
same,MIC,Shigella flexneri,0.25 µg/mL
same,MIC,Citrobacter freundii,0.12 µg/mL
same,MIC,[1],32 µg/mL
"CC(C)CCCCC(=O)N[C@@H](CCN)C(=O)N[C@H](C(=O)N[C@@H](CCN)C(=O)N[C@H]1CCNC(=O)[C@H]([C@@H](C)O)NC(=O)[C@H](CCN)NC(=O)[C@H](CCN)NC(=O)[C@H](CC(C)C)NC(=O)[C@@H](CC(C)C)NC(=O)[C@H](CCN)NC1=O)[C@@H](C)O [Colistin B, colistin B, reference compound] ({Heptanoyl(6-Me)}-[Dab]T[Dab][Dab][Dab][dL]L[Dab][Dab]T; lactam 4-C)",Minimal Inhibitory Concentration (MIC),Salmonella typhi; Salmonella typhi H901,1 µg/mL
same,Minimal Inhibitory Concentration (MIC),Acinetobacter baumannii; Acinetobacter baumannii 16-16,1 µg/mL
same,Minimal Inhibitory Concentration (MIC),Acinetobacter baumannii; Acinetobacter baumannii 16-33,2 µg/mL
same,Minimal Inhibitory Concentration (MIC),Acinetobacter baumannii; Acinetobacter baumannii ATCC 19606,1 µg/mL
same,Minimal Inhibitory Concentration (MIC),Proteus mirabilis; Proteus mirabilis ATCC 49565,>64 µg/mL
same,Minimal Inhibitory Concentration (MIC),Proteus vulgaris; Proteus vulgaris ATCC 29905,>64 µg/mL
same,Minimal Inhibitory Concentration (MIC),Enterobacter cloacae; Enterobacter cloacae ATCC 43560,>64 µg/mL
same,Minimal Inhibitory Concentration (MIC),Enterobacter cloacae; [4],1 µg/mL
same,Minimal Inhibitory Concentration (MIC),Providencia rettgeri; Providencia rettgeri ATCC 31052,>64 µg/mL
same,Minimal Inhibitory Concentration (MIC),Serratia marcescens,>64 µg/mL
same,Minimal Inhibitory Concentration (MIC),Pseudomonas aeruginosa; Pseudomonas aeruginosa 16-11,4 µg/mL
same,Minimal Inhibitory Concentration (MIC),Pseudomonas aeruginosa; Pseudomonas aeruginosa ATCC 27853,4 µg/mL
same,Minimal Inhibitory Concentration (MIC),Pseudomonas aeruginosa; Pseudomonas aeruginosa PAO1,8 µg/mL
same,Minimal Inhibitory Concentration (MIC),Escherichia coli; [8],8 µg/mL
same,Minimal Inhibitory Concentration (MIC),Escherichia coli; [9],8 µg/mL
same,Minimal Inhibitory Concentration (MIC),Escherichia coli; [10],8 µg/mL
same,Minimal Inhibitory Concentration (MIC),Escherichia coli; [11],0.5 µg/mL
same,Minimal Inhibitory Concentration (MIC),Escherichia coli; [12],1 µg/mL
same,Minimal Inhibitory Concentration (MIC),"Escherichia coli; Escherichia coli ATCC 25922, ESBLs(−)",1 µg/mL
same,Minimal Inhibitory Concentration (MIC),"Escherichia coli; Escherichia coli ATCC 35218, ESBLs(+)",1 µg/mL
same,Minimal Inhibitory Concentration (MIC),Escherichia coli; [14],1 µg/mL
same,Minimal Inhibitory Concentration (MIC),Klebsiella Pneumoniae; [17],16 µg/mL
same,Minimal Inhibitory Concentration (MIC),Klebsiella Pneumoniae; [18],1 µg/mL
same,Minimal Inhibitory Concentration (MIC),Klebsiella Pneumoniae; [19],1 µg/mL
same,Minimal Inhibitory Concentration (MIC),"Klebsiella Pneumoniae; Klebsiella Pneumoniae ATCC 700603, ESBLs(+)",2 µg/mL
same,Minimal Inhibitory Concentration (MIC),"Klebsiella Pneumoniae; Klebsiella Pneumoniae ATCC BAA-2146, NDM-1(+)",1 µg/mL
same,Minimal Inhibitory Concentration (MIC),Enterobacter aerogenes,2 µg/mL
same,Minimal Inhibitory Concentration (MIC),Shigella flexneri,0.5 µg/mL
same,Minimal Inhibitory Concentration (MIC),Citrobacter freundii,2 µg/mL
same,Minimal Inhibitory Concentration (MIC),[1],>64 µg/mL
CC1(C)[C@H](NC(=O)/C(=N\OC2(C(=O)O)CC2)c2csc(N)n2)C(=O)N1OS(=O)(=O)O [Compound A-1],MIC,Salmonella typhi,0.06 µg/mL
same,MIC,Acinetobacter baumannii; [2],16 µg/mL
same,MIC,Acinetobacter baumannii; Acinetobacter baumannii 16-16,64 µg/mL
same,MIC,Acinetobacter baumannii; Acinetobacter baumannii 16-33,32 µg/mL
same,MIC,Proteus mirabilis,≤ 0.03 µg/mL
same,MIC,Proteus vulgaris,≤ 0.03 µg/mL
same,MIC,Enterobacter cloacae; [3],0.06 µg/mL
same,MIC,Enterobacter cloacae; [4],2 µg/mL
same,MIC,Providencia rettgeri,≤ 0.03 µg/mL
same,MIC,Serratia marcescens,0.25 µg/mL
same,MIC,Pseudomonas aeruginosa; [5],8 µg/mL
same,MIC,Pseudomonas aeruginosa; Pseudomonas aeruginosa 16-11,8 µg/mL
same,MIC,Pseudomonas aeruginosa; Pseudomonas aeruginosa PAO1,2 µg/mL
same,MIC,Escherichia coli; [6],0.12 µg/mL
same,MIC,Escherichia coli; [7],0.06 µg/mL
same,MIC,Escherichia coli; [8],0.12 µg/mL
same,MIC,Escherichia coli; [9],0.12 µg/mL
same,MIC,Escherichia coli; [10],0.12 µg/mL
same,MIC,Escherichia coli; [11],0.06 µg/mL
same,MIC,Escherichia coli; [12],0.12 µg/mL
same,MIC,Escherichia coli; [13],4 µg/mL
same,MIC,Escherichia coli; [14],0.25 µg/mL
same,MIC,Klebsiella Pneumoniae; [15],4 µg/mL
same,MIC,Klebsiella Pneumoniae; [16],0.5 µg/mL
same,MIC,Klebsiella Pneumoniae; [17],0.06 µg/mL
same,MIC,Klebsiella Pneumoniae; [18],2 µg/mL
same,MIC,Klebsiella Pneumoniae; [19],0.12 µg/mL
same,MIC,Klebsiella Pneumoniae; [20],0.25 µg/mL
same,MIC,Enterobacter aerogenes,0.12 µg/mL
same,MIC,Shigella flexneri,0.12 µg/mL
same,MIC,Citrobacter freundii,0.12 µg/mL
same,MIC,[1],8 µg/mL
